Assays:
[1] = molecular target: VEGFR2 (Homo sapiens (Human), UniProt P35968); assay: In vitro kinase binding assay (VEGFR2)
Experimental: All reactions performed in polypropylene 384-well plate. Each was a final volume of 0.02 ml.

[2] = molecular target: TIE II (Homo sapiens (Human), UniProt Q02763); assay: TIE II inhibition, dissociation constant; type: binding
[3] = rat, in vivo, 40.21 mg/kg
[4] = tested on: choroidal neovascular (CNV) lesions; assay: Localization and persistence in CNV lesions after systemic administration, laser-induced CNV mouse model; type: in vivo, C57BL/6 mice
Experimental: Two studies were conducted in C57BL/6 mice (n=5/group) administered intravenously 100 μL of D-ICG or vehicle control. In the first study, mice were administered D-ICG or vehicle control at 1, 3, 7, or 14 days post-laser and eyes were analyzed by optical coherence tomography (OCT) with ICG imaging at 4 or 24 hr post-dose. Flat-mounts of the sclera-choroid/retinal pigment epithelial (RPE) complexes were stained by fluorescently tagged isolectin and IBA-1.
The second study evaluated the localization and persistence of dendrimer conjugates in the CNV lesion. In the second study, mice were administered intravenously 100 μL of D-ICG and 100 μL of D-TRITC (1 hr after D-ICG) or vehicle control at 24 hr post-laser. Mice analyzed and sacrificed at 4, 7, 14, 21, and 28 days post-dose (n=5/group). For control group, free ICG (1.23 mg/mL), 100 μL, IV dosed 24 hr post-laser and mice analyzed and sacrificed at 2, 4, 7, and 14 days post-dose (n=5/group). Eyes analyzed by optical coherence tomography (OCT) with ICG imaging. Flat-mounts of the sclera-choroid/retinal pigment epithelial (RPE) complexes were stained by fluorescently tagged IBA-1 alone.

[5] = Toxicokinetics in rats; type: in vivo, Sprague-Dawley rats; settings: D-4517 12 mg/kg daily IP, sunitinib 30 mg/kg daily oral
Experimental: Toxicokinetic data was collected in rats. […] Blood samples were collected, and plasma drug concentrations were determined. Noncompartmental toxicokinetic parameters were estimated.

[6] = tested on: choroidal neovascularization (CNV); assay: Laser-induced CNV mouse model, single IP dose, duration of efficacy; type: in vivo, C57BL/6 mice; settings: single IP dose (aflibercept IVT)
[7] = tested on: choroidal neovascularization (CNV); assay: Laser-induced CNV mouse model, single IV dose; settings: single dose 24 hr after laser (IV; aflibercept IVT 40 μg); CNV area 7 days after laser
Experimental: As a positive control group, a cohort of mice were administered aflibercept (EYLEA®) intravitreally (IVT; 1 μL, 40 μg). The CNV area was measured 7 days after laser treatment by both fluorescein angiography and flat-mounts of the sclera-choroid/RPE complexes stained with isolectin IB4.

Chain of TIE II (Q02763 23-1124): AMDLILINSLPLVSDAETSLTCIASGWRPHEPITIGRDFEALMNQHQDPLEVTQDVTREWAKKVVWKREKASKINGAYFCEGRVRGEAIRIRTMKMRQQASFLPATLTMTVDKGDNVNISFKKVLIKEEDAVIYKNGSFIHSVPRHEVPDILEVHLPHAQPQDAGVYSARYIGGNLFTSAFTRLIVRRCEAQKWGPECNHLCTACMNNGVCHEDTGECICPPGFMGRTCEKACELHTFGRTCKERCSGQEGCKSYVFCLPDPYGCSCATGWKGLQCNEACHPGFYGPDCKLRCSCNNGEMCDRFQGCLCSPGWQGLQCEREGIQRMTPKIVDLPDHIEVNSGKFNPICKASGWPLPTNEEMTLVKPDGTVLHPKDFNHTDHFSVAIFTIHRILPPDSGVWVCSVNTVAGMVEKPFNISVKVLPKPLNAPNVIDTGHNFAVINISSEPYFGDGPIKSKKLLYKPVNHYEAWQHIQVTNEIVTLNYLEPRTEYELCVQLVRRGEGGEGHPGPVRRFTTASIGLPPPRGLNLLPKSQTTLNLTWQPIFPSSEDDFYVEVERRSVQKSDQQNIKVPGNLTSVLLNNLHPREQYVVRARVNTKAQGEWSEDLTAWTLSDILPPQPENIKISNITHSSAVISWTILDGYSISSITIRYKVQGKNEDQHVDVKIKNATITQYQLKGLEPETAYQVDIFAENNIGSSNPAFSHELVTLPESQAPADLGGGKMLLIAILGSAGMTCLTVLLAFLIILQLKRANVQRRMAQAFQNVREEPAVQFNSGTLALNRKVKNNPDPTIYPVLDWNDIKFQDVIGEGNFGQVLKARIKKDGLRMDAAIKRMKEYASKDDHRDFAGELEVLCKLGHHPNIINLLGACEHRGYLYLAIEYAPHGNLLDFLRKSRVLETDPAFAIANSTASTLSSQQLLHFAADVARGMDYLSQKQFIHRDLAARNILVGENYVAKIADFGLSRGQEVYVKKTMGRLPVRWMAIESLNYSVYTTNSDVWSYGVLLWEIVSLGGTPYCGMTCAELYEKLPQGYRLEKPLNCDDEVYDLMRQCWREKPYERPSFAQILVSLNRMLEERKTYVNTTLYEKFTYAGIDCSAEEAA
Chain of VEGFR2 (P35968 20-1356): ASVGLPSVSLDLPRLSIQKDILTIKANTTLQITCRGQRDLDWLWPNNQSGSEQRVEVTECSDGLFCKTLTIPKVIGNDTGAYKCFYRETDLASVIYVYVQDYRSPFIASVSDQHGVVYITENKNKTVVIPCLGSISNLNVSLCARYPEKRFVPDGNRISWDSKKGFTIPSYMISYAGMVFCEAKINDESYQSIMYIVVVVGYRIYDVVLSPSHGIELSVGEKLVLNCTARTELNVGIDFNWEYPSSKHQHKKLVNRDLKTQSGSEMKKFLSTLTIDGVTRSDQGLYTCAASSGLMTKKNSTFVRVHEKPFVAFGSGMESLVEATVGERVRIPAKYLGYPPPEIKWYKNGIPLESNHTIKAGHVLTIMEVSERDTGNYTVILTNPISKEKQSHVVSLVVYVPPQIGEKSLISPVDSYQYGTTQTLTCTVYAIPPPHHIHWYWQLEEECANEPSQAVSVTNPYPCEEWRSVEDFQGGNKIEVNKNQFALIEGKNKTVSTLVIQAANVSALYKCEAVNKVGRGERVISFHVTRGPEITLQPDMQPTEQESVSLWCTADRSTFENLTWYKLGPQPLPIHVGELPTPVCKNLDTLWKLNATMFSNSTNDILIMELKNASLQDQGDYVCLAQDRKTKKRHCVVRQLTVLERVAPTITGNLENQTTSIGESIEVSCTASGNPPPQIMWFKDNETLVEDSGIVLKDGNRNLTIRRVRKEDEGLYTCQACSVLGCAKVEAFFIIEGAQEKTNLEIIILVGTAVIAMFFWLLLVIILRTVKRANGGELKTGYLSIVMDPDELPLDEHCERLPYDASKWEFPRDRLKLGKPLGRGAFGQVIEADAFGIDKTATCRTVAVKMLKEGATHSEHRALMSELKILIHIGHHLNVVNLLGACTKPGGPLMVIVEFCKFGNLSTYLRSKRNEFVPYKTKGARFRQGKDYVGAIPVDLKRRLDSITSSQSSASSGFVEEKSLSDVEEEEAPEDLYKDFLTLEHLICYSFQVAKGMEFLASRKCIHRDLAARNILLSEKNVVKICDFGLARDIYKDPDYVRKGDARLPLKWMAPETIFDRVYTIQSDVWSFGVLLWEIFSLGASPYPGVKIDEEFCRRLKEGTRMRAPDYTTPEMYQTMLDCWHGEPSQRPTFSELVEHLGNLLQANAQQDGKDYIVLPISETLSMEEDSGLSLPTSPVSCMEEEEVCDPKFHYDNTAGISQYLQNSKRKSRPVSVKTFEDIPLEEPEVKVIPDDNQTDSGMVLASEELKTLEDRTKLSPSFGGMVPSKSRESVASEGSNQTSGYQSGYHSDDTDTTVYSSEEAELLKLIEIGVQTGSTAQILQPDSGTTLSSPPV

With `Cc1[nH]c(/C=C2\C(=O)Nc3ccc(F)cc32)c(C)c1C(=O)NCCNC(=O)CCOCCOCCOCCN=[N+]=[N-]` the Kd [1] was 1 nM.
Work on `COC(=O)Nc1nc2ccc(Oc3ccc(NC(=O)Nc4cc(C(F)(F)F)ccc4OCCCCN=[N+]=[N-])cc3)cc2[nH]1` [Structure V] yielded a Kd [2] of roughly 8.8 nM.
For `CCN(CC)CCNC(=O)c1c(C)[nH]c(/C=C2\C(=O)Nc3ccc(F)cc32)c1C` [Sunitinib Malate, reference compound], the overall tolerability [3] was “various clinical and pathological changes in addition to mortality in female rats”.
In the case of `CC1(C)C(/C=C/C=C/C=C/C=C2\N(CCCCS(=O)(=O)[O-])c3ccc4ccccc4c3C2(C)C)=[N+](CCCCS(=O)(=O)[O-])c2ccc3ccccc3c21.[Na+]` [free ICG, indocyanine green], the “time at which no longer present in the lesions” value ([4]; free ICG control groups, IV 24 hr post-laser) is reported as 7-14 days post-laser and the “uptake/distribution in CNV lesions” value ([4]; systemic administration, within 24 hr after dosing) is reported as “distributes non-specifically”.
For `CCN(CC)CCNC(=O)c1c(C)[nH]c(/C=C2\C(=O)Nc3ccc(F)cc32)c1C` [free sunitinib, sunitinib], the “AUC estimates, sunitinib compared to D-4517” value [5] was “higher”.
In the case of aflibercept, the CNV area ([6]; day 7 post-treatment) is reported as “Significant reduction in the CNV area”, the CNV area ([6]; day 14 post-treatment) is reported as “not sustained” and the “reduction in CNV area compared with vehicle control” value [7] is reported as “Statistically significant reductions in the CNV area”.

Reference: patent US20240058459A1 (Ashvattha Therapeutics, Inc., priority 2019, published 2024)
